Experimental data from US20160158200A1, “Combinations of Hepatitis C Virus Inhibitors” (priority 2013, published 2016).

Tested on: HCV genotype-1a variant with glutamine 30 changed to glutamate in the NS5A protein
Assay type: cell-based
Conditions: test compound titrated with BMS-790052 fixed at 200 nM; genotype 1a Q30E replicon
Procedure, shortened: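 Synergy was assessed by combining several fixed amounts of an NS5A-targeting compound with a titration of the second compound of interest.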

| SMILES | Fold-Synergistic 1a (Q30E) |
| --- | --- |
| CC(C)[C@H](NC(=O)C(C)(C)OCC(F)F)c1nc(-c2ccc(-c3ccc(-c4c[nH]c([C@@H](NC(=O)C(C)(C)OCC(F)F)C(C)C)n4)cc3F)cc2)c[nH]1.O=C(O)C(F)(F)F [Compound N-98] | >100 fold |
| CC(C)[C@H](NC(=O)c1cc(Cl)ccc1F)c1nc(-c2ccc(-c3ccc(-c4c[nH]c([C@@H](NC(=O)c5cc(Cl)ccc5F)C(C)C)n4)cc3F)cc2)c[nH]1.O=C(O)C(F)(F)F [Compound N-99] | >100 fold |
| CC(C)[C@H](NC(=O)C(C)(C)C)c1nc(-c2ccc(-c3ccc(-c4c[nH]c([C@@H](NC(=O)C(C)(C)C)C(C)C)n4)cc3F)cc2)c[nH]1.O=C(O)C(F)(F)F [Compound N-100] | >100 fold |
| CC(C)[C@H](NC(=O)C(C)(C)C)c1nc(-c2ccc(-c3ccc(-c4c[nH]c([C@@H](NC(=O)C(C)(C)C)C(C)C)n4)nc3)cc2)c[nH]1 [Compound N-101, N—((S)-2-methyl-1-(4-(4-(6-(2-((S)-2-methyl-1-pivalamidopropyl)-1H-imidazol-4-yl)pyridin-3-yl)phenyl)-1H-imidazol-2-yl)propyl)pivalamide] | >100 fold |
| COC(C)(C)C(=O)N[C@H](c1nc(-c2ccc(-c3ccc(-c4c[nH]c([C@@H](NC(=O)C(C)(C)OC)C(C)C)n4)cn3)cc2)c[nH]1)C(C)C.O=C(O)C(F)(F)F [Compound N-102] | >100 fold |
| CC(C)[C@H](NC(=O)C(C)(C)C)c1nc(-c2ccc(-c3ccc(-c4c[nH]c([C@@H](NC(=O)C(C)(C)C)C(C)C)n4)cn3)cc2)c[nH]1.O=C(O)C(F)(F)F [Compound N-103] | >100 fold |
| CC(C)(C)[C@H](NC(=O)C1CCC(F)(F)CC1)c1nc(-c2ccc(-c3ncc(-c4c[nH]c([C@@H](NC(=O)C5CCC(F)(F)CC5)C(C)(C)C)n4)cn3)cc2)c[nH]1 [Compound N-104] | >100 fold |
| CC(C)(C)C(=O)N[C@H](c1nc(-c2ccc(-c3cnc(-c4c[nH]c([C@@H](NC(=O)C(C)(C)C)C(C)(C)C)n4)cn3)cc2)c[nH]1)C(C)(C)C.O=C(O)C(F)(F)F [Compound N-105] | >100 fold |
| CC(C)(C)C(=O)N[C@H](c1nc(-c2ccc(-c3ccc(-c4c[nH]c([C@@H](NC(=O)C(C)(C)C)C(C)(C)CO)n4)cc3)cc2)c[nH]1)C(C)(C)CO [Compound N-110] | >100 fold |
| CC(C)(C)[C@H](NC(=O)CC1CCC(F)(F)CC1)c1nc(-c2ccc(-c3ccc(-c4c[nH]c([C@@H](NC(=O)CC5CCC(F)(F)CC5)C(C)(C)C)n4)cc3)cc2)c[nH]1 [Compound N-112] | >100 fold |
| CC1(C(=O)N[C@H](c2nc(-c3ccc(-c4ccc(-c5c[nH]c([C@@H](NC(=O)C6(C)COC6)C(C)(C)C)n5)cc4)cc3)c[nH]2)C(C)(C)C)COC1 [Compound N-113] | >100 fold |
| CC(C)(C)[C@H](NC(=O)c1ccc(C(F)(F)F)s1)c1nc(-c2ccc(-c3ccc(-c4c[nH]c([C@@H](NC(=O)c5ccc(C(F)(F)F)s5)C(C)(C)C)n4)cc3)cc2)c[nH]1 [Compound N-114] | >100 fold |
| CC(C)(F)C(=O)N[C@H](c1nc(-c2ccc(-c3ccc(-c4c[nH]c([C@@H](NC(=O)C(C)(C)F)C(C)(C)C)n4)cc3)cc2)c[nH]1)C(C)(C)C [Compound N-115] | >100 fold |
| CC(C)(OCC(F)F)C(=O)N[C@H](c1nc(-c2ccc(-c3ccc(-c4c[nH]c([C@@H](NC(=O)C(C)(C)OCC(F)F)C(C)(C)C)n4)cc3)cc2)c[nH]1)C(C)(C)C [Compound N-116] | <10 fold |
| CC(C)CC(=O)N[C@H](c1nc(-c2ccc(-c3ccc(-c4c[nH]c([C@@H](NC(=O)CC(C)C)C(C)(C)C)n4)cc3)cc2)c[nH]1)C(C)(C)C [Compound N-117] | >100 fold |
| C=C1CCC(C(=O)N[C@H](c2nc(-c3ccc(-c4ccc(-c5c[nH]c([C@@H](NC(=O)C6CCC(=C)CC6)C(C)(C)C)n5)cc4)cc3)c[nH]2)C(C)(C)C)CC1 [Compound N-118] | >100 fold |
| CC(C)(C)[C@H](NC(=O)CC1CC(F)(F)C1)c1nc(-c2ccc(-c3ccc(-c4c[nH]c([C@@H](NC(=O)CC5CC(F)(F)C5)C(C)(C)C)n4)cc3)cc2)c[nH]1 [Compound N-120] | >100 fold |
| CC(C)(C)[C@H](NC(=O)C1CCC(=C(F)F)CC1)c1nc(-c2ccc(-c3ccc(-c4c[nH]c([C@@H](NC(=O)C5CCC(=C(F)F)CC5)C(C)(C)C)n4)cc3)cc2)c[nH]1 (some centres unmarked) [Compound N-121] | >100 fold |
| CC(C)(C)[C@H](NC(=O)C1CCC2(CC1)CC2)c1nc(-c2ccc(-c3ccc(-c4c[nH]c([C@@H](NC(=O)C5CCC6(CC5)CC6)C(C)(C)C)n4)cc3)cc2)c[nH]1 (some centres unmarked) [Compound N-123] | >100 fold |
| CC(C)(C)[C@H](NC(=O)[C@@]1(C)CCC(F)(F)CO1)c1nc(-c2ccc(-c3cnc(-c4c[nH]c([C@@H](NC(=O)[C@@]5(C)CCC(F)(F)CO5)C(C)(C)C)n4)cn3)cc2)c[nH]1 [Compound N-130] | >100 fold |
| CC(C)[C@H](NC(=O)[C@@]1(C)CCC(F)(F)CO1)c1nc(-c2ccc3c(c2)CCc2cc(-c4c[nH]c([C@@H](NC(=O)[C@@]5(C)CCC(F)(F)CO5)C(C)C)n4)ccc2-3)c[nH]1 [Compound N-131] | >100 fold |

| SMILES | Fold-Synergistic 1a (Q30E) |
| --- | --- |
| CC(C)[C@H](NC(=O)[C@@]1(C)CCC(F)(F)CO1)c1nc(-c2ccc(-c3ccc(-c4c[nH]c([C@@H](NC(=O)[C@@]5(C)CCC(F)(F)CO5)C(C)C)n4)c(F)c3)cc2)c[nH]1 [Compound N-132] | >100 fold |
| CC(C)[C@H](NC(=O)[C@@]1(C)CCC(F)(F)CO1)c1nc(-c2ccc(-c3ccc(-c4c[nH]c([C@@H](NC(=O)[C@@]5(C)CCC(F)(F)CO5)C(C)C)n4)cc3F)cc2)c[nH]1 [Compound N-133] | >100 fold |
| CC(C)[C@H](NC(=O)[C@@]1(C)CCC(F)(F)CO1)c1nc(-c2ccc(-c3ccc(-c4c[nH]c([C@@H](NC(=O)[C@@]5(C)CCC(F)(F)CO5)C(C)C)n4)cn3)cc2)c[nH]1 [Compound N-134] | >100 fold |
| CC(C)(C)[C@H](NC(=O)C(O)(CF)CF)c1nc(-c2ccc(-c3ccc(-c4c[nH]c([C@@H](NC(=O)C(O)(CF)CF)C(C)(C)C)n4)cc3)cc2)c[nH]1 [Compound N-140] | >100 fold |
| CC1([C@H](NC(=O)C(O)(CF)CF)c2nc(-c3ccc(-c4ccc(-c5c[nH]c([C@@H](NC(=O)C(O)(CF)CF)C6(C)CC6)n5)cc4)cc3)c[nH]2)CC1 [Compound N-141] | >100 fold |
| CC(C)[C@H](NC(=O)C(O)(CF)CF)c1nc(-c2ccc(-c3ccc(-c4c[nH]c([C@@H](NC(=O)C(O)(CF)CF)C(C)C)n4)cc3)cc2)c[nH]1 [Compound N-142] | >100 fold |
| CCOC(=O)C1(C(=O)N[C@H](c2nc(-c3ccc(-c4ccc(-c5c[nH]c([C@@H](NC(=O)C6(C(=O)OCC)CCCCC6)C(C)(C)C)n5)cc4)cc3)c[nH]2)C(C)(C)C)CCCCC1 [Compound N-146] | >100 fold |
| CC(C)(C)[C@H](NC(=O)C1(C(=O)O)CCCCC1)c1nc(-c2ccc(-c3ccc(-c4c[nH]c([C@@H](NC(=O)C5(C(=O)O)CCCCC5)C(C)(C)C)n4)cc3)cc2)c[nH]1 [Compound N-147] | >100 fold |
| CC(C)(C)[C@H](NC(=O)C1(CO)CC(F)(F)C1)c1nc(-c2ccc(-c3ccc(-c4c[nH]c([C@@H](NC(=O)C5(CO)CC(F)(F)C5)C(C)(C)C)n4)cc3)cc2)c[nH]1 [Compound N-153] | >100 fold |
| CC(C)[C@H](NC(=O)C1(CO)CC(F)(F)C1)c1nc(-c2ccc(-c3ccc(-c4c[nH]c([C@@H](NC(=O)C5(CO)CC(F)(F)C5)C(C)C)n4)cc3)cc2)c[nH]1 [Compound N-154] | >100 fold |
| CC1([C@H](NC(=O)C2(CO)CC(F)(F)C2)c2nc(-c3ccc(-c4ccc(-c5c[nH]c([C@@H](NC(=O)C6(CO)CC(F)(F)C6)C6(C)CC6)n5)cc4)cc3)c[nH]2)CC1 [Compound N-155] | >100 fold |
| CCC(C)(C)C(=O)N[C@H](c1nc(-c2ccc(-c3ccc(-c4c[nH]c([C@@H](NC(=O)C(C)(C)CC)C(C)(C)C)n4)cc3)cc2)c[nH]1)C(C)(C)C [Compound P-11] | >100 fold |
| COCC(C)(C)C(=O)N[C@H](c1nc(-c2ccc(-c3ccc(-c4c[nH]c([C@@H](NC(=O)C(C)(C)COC)C(C)(C)C)n4)cc3)cc2)c[nH]1)C(C)(C)C [Compound P-12] | >100 fold |
| COC(C)(C)C(=O)N[C@H](c1nc(-c2ccc(-c3ccc(-c4c[nH]c([C@@H](NC(=O)C(C)(C)OC)C(C)(C)C)n4)cc3)cc2)c[nH]1)C(C)(C)C [Compound P-13] | >100 fold |
| CC(C)(C)[C@H](NC(=O)C1(CF)CC1)c1nc(-c2ccc(-c3ccc(-c4c[nH]c([C@@H](NC(=O)C5(CF)CC5)C(C)(C)C)n4)cc3)cc2)c[nH]1 [Compound P-14] | >100 fold |
| CO[C@@H](C(=O)N[C@H](c1nc(-c2ccc(-c3ccc(-c4c[nH]c([C@@H](NC(=O)[C@H](OC)c5ccccc5)C(C)(C)C)n4)cc3)cc2)c[nH]1)C(C)(C)C)c1ccccc1 [Compound P-15] | >100 fold |
| CC(C)(C)[C@H](NC(=O)Cc1noc2ccccc12)c1nc(-c2ccc(-c3ccc(-c4c[nH]c([C@@H](NC(=O)Cc5noc6ccccc56)C(C)(C)C)n4)cc3)cc2)c[nH]1 [Compound P-16] | >100 fold |
| CC(C)(C)[C@H](NC(=O)C1CC(F)(F)C1)c1nc(-c2ccc(-c3ccc(-c4c[nH]c([C@@H](NC(=O)C5CC(F)(F)C5)C(C)(C)C)n4)cc3)cc2)c[nH]1 [Compound P-17] | >100 fold |
| CO[C@H](C(=O)N[C@H](c1nc(-c2ccc(-c3ccc(-c4c[nH]c([C@@H](NC(=O)[C@@H](OC)c5ccccc5)C(C)(C)C)n4)cc3)cc2)c[nH]1)C(C)(C)C)c1ccccc1 [Compound P-18] | >100 fold |
| CC(C)(CF)C(=O)N[C@H](c1nc(-c2ccc(-c3ccc(-c4c[nH]c([C@@H](NC(=O)C(C)(C)CF)C(C)(C)C)n4)cc3)cc2)c[nH]1)C(C)(C)C [Compound P-19] | >100 fold |
